Source: ChEMBL document CHEMBL4229455, “Synthesis and anticancer activity of novel bisindolylhydroxymaleimide derivatives with potent GSK-3 kinase inhibition” (Bioorg Med Chem, 2018)

How the values were obtained:
[1] = target: Serine/threonine-protein kinase pim-1 (Homo sapiens, UniProt P11309); experiment: Inhibition of recombinant full length human PIM1 expressed in bacteria assessed as residual activity at 10 uM using histone H1 as substrate in presence of [gamma-33P]ATP
ACHN = experiment: Cytotoxicity against human ACHN cells assessed as cell growth at 10 uM after 48 hrs by SRB assay relative to control; type: functional; conditions: read-out: Activity
[2] = target: Dual specificity tyrosine-phosphorylation-regulated kinase 1A (Rattus norvegicus) (UniProt Q63470); experiment: Inhibition of recombinant rat DYRK1A kinase domain expressed in bacteria assessed as residual activity at 10 uM using KKISGRLSPIMTEQ as substrate in presence of [gamma-33P]ATP
RXF 393 = experiment: Cytotoxicity against human RXF393 cells assessed as cell growth at 10 uM after 48 hrs by SRB assay relative to control; type: functional; conditions: RXF 393, 48 h, read-out: Activity
U-251 = experiment: Cytotoxicity against human U251 cells assessed as cell growth at 10 uM after 48 hrs by SRB assay relative to control; type: functional; conditions: U-251, 48 h, read-out: Activity
OVCAR-5 = experiment: Cytotoxicity against human OVCAR5 cells assessed as cell growth at 10 uM after 48 hrs by SRB assay relative to control; type: functional; conditions: OVCAR-5, 48 h, read-out: Activity
MDA-MB-468 = experiment: Cytotoxicity against human MDA-MB-468 cells assessed as cell growth at 10 uM after 48 hrs by SRB assay relative to control; type: functional; conditions: MDA-MB-468, 48 h, read-out: Activity
LOX IMVI = experiment: Cytotoxicity against human LOXIMVI cells assessed as cell growth at 10 uM after 48 hrs by SRB assay relative to control; type: functional; conditions: read-out: Activity
SK-MEL-28 = experiment: Cytotoxicity against human SK-MEL-28 cells assessed as cell growth at 10 uM after 48 hrs by SRB assay relative to control; type: functional; conditions: SK-MEL-28, 48 h, read-out: Activity
SK-OV-3 = experiment: Cytotoxicity against human SKOV3 cells assessed as cell growth at 10 uM after 48 hrs by SRB assay relative to control; type: functional; conditions: SK-OV-3, 48 h, read-out: Activity
SW-620 = experiment: Cytotoxicity against human SW620 cells assessed as cell growth at 10 uM after 48 hrs by SRB assay relative to control; type: functional; conditions: SW-620, 48 h, read-out: Activity
UACC-62 = experiment: Cytotoxicity against human UACC62 cells assessed as cell growth at 10 uM after 48 hrs by SRB assay relative to control; type: functional; conditions: UACC-62, 48 h, read-out: Activity
[3] = target: Glycogen synthase kinase-3 (Sus scrofa, UniProt B2LUN4+I6LNT8); experiment: Inhibition of domestic porcine brain full length GSK-3alpha/beta using GS-1 as substrate in presence of [gamma-33P]ATP; design: species or system Sus scrofa domesticus
MOLT-4 = experiment: Cytotoxicity against human MOLT4 cells assessed as cell growth at 10 uM after 48 hrs by SRB assay relative to control; type: functional; conditions: MOLT-4, 48 h, read-out: Activity
SK-MEL-2 = experiment: Cytotoxicity against human SK-MEL-2 cells assessed as cell growth at 10 uM after 48 hrs by SRB assay relative to control; type: functional; conditions: SK-MEL-2, 48 h, read-out: Activity
CDK9/cyclin T1 = CDK9/cyclin T1 (Homo sapiens, UniProt P50750); experiment: Inhibition of recombinant full length human CDK9/cyclin T expressed in baculovirus infected Sf9 insect cells using YSPTSPSYSPTSPSYSPTSPSKKKK as substrate in presence of [gamma-33P]ATP
CCRF-CEM = experiment: Cytotoxicity against human CCRF-CEM cells assessed as cell growth at 10 uM after 48 hrs by SRB assay relative to control; type: functional; conditions: read-out: Activity
OVCAR-4 = experiment: Cytotoxicity against human OVCAR4 cells assessed as cell growth at 10 uM after 48 hrs by SRB assay relative to control; type: functional; conditions: OVCAR-4, 48 h, read-out: Activity
Hs-578T = experiment: Cytotoxicity against human Hs 578T cells assessed as cell growth at 10 uM after 48 hrs by SRB assay relative to control; type: functional; conditions: read-out: Activity
SNB-19 = experiment: Cytotoxicity against human SNB19 cells assessed as cell growth at 10 uM after 48 hrs by SRB assay relative to control; type: functional; conditions: SNB-19, 48 h, read-out: Activity
HCT-116 = experiment: Cytotoxicity against human HCT116 cells assessed as cell growth at 10 uM after 48 hrs by SRB assay relative to control; type: functional; conditions: HCT-116, 48 h, read-out: Activity
HL-60(TB) = experiment: Cytotoxicity against human HL-60(TB) cells assessed as cell growth at 10 uM after 48 hrs by SRB assay relative to control; type: functional; conditions: HL-60, 48 h, read-out: Activity
SK-MEL-5 = experiment: Cytotoxicity against human SK-MEL-5 cells assessed as cell growth at 10 uM after 48 hrs by SRB assay relative to control; type: functional; conditions: SK-MEL-5, 48 h, read-out: Activity
T47D = experiment: Cytotoxicity against human T47D cells assessed as cell growth at 10 uM after 48 hrs by SRB assay relative to control; type: functional; conditions: read-out: Activity
[4] = target: T1, Receptor-interacting serine/threonine-protein kinase 3 (Homo sapiens, UniProt Q9Y572); experiment: Inhibition of recombinant full length human RIPK3 expressed in baculovirus infected Sf9 insect cells assessed as residual activity at 10 uM using MBP as substrate in presence of [gamma-33P]ATP
Target sequence in this assay (Q9Y572 whole entry, looked up): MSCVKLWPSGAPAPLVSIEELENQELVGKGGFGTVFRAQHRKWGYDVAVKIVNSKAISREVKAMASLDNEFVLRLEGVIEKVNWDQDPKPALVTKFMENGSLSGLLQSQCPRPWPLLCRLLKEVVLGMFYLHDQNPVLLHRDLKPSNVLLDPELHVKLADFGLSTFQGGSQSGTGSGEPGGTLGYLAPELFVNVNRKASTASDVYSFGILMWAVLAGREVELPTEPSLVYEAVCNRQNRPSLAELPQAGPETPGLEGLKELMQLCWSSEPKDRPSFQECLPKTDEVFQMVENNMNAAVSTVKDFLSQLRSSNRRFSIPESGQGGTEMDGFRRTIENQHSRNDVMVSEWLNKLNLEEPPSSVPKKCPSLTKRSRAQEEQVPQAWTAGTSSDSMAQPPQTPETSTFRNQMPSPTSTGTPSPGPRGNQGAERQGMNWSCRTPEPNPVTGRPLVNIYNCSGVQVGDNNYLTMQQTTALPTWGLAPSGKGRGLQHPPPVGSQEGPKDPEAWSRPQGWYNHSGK

[5] = Inhibition of domestic porcine brain full length […] using RRKHAAIGSpAYSITA as substrate in presence of [gamma-33P]ATP; design: species or system Sus scrofa domesticus
[6] = target: T1, Receptor-interacting serine/threonine-protein kinase 3; experiment: Inhibition of recombinant full length human RIPK3 expressed in baculovirus infected Sf9 insect cells using MBP as substrate in presence of [gamma-33P]ATP
Target sequence in this assay (Q9Y572 whole entry): as the sequence (Q9Y572 whole entry, looked up) above

TK-10 = experiment: Cytotoxicity against human TK10 cells assessed as cell growth at 10 uM after 48 hrs by SRB assay relative to control; type: functional; conditions: TK-10, 48 h, read-out: Activity
A549 = experiment: Cytotoxicity against human A549 cells assessed as cell growth at 10 uM after 48 hrs by SRB assay relative to control; type: functional; conditions: A549, 48 h, read-out: Activity
NCI-H23 = experiment: Cytotoxicity against human NCI-H23 cells assessed as cell growth at 10 uM after 48 hrs by SRB assay relative to control; type: functional; conditions: NCI-H23, 48 h, read-out: Activity
HCT-15 = experiment: Cytotoxicity against human HCT15 cells assessed as cell growth at 10 uM after 48 hrs by SRB assay relative to control; type: functional; conditions: HCT-15, 48 h, read-out: Activity
Aurora kinase B = Aurora kinase B (Homo sapiens, UniProt Q96GD4); experiment: Inhibition of recombinant full length human aurora B expressed in baculovirus infected Sf9 insect cells assessed as residual activity at 10 uM using MBP as substrate in presence of [gamma-33P]ATP
BT-549 = experiment: Cytotoxicity against human BT549 cells assessed as cell growth at 10 uM after 48 hrs by SRB assay relative to control; type: functional; conditions: BT-549, 48 h, read-out: Activity

Aurora kinase B, sequence (Q96GD4 whole entry): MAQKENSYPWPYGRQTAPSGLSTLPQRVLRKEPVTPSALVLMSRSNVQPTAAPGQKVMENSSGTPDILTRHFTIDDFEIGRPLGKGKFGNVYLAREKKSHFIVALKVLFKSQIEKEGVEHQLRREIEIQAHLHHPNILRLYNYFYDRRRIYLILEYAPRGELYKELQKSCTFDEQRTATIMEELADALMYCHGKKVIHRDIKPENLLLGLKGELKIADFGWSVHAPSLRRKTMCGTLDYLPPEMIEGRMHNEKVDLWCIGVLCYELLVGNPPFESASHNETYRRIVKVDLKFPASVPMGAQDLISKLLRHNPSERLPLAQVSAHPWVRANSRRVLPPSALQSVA
CDK9/cyclin T1, sequence (O60563 whole entry): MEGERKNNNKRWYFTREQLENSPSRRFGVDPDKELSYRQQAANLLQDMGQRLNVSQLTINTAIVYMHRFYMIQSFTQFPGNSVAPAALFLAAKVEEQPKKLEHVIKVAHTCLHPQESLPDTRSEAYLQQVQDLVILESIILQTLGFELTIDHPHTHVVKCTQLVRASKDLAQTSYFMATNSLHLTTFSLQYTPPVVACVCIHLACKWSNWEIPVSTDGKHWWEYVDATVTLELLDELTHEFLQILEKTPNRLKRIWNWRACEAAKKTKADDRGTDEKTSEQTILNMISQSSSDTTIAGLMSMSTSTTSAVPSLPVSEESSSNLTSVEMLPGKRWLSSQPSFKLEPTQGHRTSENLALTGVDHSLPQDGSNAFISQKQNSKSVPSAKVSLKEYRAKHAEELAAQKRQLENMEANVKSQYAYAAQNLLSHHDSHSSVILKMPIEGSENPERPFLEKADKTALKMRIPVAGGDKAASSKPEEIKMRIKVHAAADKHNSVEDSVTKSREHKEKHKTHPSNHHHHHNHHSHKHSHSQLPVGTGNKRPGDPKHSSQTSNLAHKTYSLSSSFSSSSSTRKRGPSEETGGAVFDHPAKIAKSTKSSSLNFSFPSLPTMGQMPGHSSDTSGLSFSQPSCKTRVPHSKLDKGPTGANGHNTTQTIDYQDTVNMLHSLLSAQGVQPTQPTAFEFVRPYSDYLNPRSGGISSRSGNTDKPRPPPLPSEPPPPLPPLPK
CDK9/cyclin T1, sequence (P50750 whole entry): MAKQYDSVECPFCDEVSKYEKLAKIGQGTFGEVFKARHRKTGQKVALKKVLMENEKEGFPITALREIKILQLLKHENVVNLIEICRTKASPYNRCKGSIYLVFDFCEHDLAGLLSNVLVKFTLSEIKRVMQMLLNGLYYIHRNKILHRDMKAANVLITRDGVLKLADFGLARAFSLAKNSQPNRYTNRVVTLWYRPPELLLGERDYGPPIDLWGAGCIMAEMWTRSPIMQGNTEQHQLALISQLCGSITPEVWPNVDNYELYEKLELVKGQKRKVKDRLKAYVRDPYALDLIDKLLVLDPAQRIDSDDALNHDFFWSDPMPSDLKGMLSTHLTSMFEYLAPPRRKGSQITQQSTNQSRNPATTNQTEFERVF
Serine/threonine-protein kinase pim-1, sequence (P11309 whole entry, looked up): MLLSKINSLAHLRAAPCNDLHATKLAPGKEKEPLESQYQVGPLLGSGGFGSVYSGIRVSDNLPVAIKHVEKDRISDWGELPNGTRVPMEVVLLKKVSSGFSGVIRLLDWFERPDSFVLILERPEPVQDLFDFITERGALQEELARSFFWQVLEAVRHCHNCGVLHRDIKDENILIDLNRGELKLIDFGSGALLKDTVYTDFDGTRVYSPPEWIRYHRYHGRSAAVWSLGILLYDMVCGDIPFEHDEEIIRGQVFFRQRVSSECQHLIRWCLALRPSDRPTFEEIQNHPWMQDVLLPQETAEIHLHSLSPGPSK

Row | SMILES | Activity [1] [%] | growth at 10 µM (ACHN) [%] | Activity [2] [%] | growth at 10 µM (RXF 393) [%] | growth at 10 µM (U-251) [%] | growth at 10 µM (OVCAR-5) [%] | growth at 10 µM (MDA-MB-468) [%] | growth at 10 µM (LOX IMVI) [%] | growth at 10 µM (SK-MEL-28) [%] | growth at 10 µM (SK-OV-3) [%] | growth at 10 µM (SW-620) [%] | IC50 [3] [µM] | growth at 10 µM (MOLT-4) [%] | growth at 10 µM (SK-MEL-2) [%] | IC50 (CDK9/cyclin T1) [µM] | growth at 10 µM (OVCAR-4) [%] | growth at 10 µM (Hs-578T) [%] | growth at 10 µM (HCT-116) [%] | growth at 10 µM (SK-MEL-5) [%] | growth at 10 µM (T47D) [%] | other results
1 | O=C(O)CCCCCn1cc(C2=C(c3c[nH]c4ccccc34)C(=O)N(O)C2=O)c2ccccc21 | 53 | 97.5 | 24 | 101 | 102 | 106 | 104 | 80.4 | 111 | 81 | 95.3 | 0.75 | 99.7 | 99.4 | 2 | 113 | 103 | 98.9 | 93.9 | 96.2 | growth at 10 µM (UACC-62): 95.7%; growth at 10 µM (CCRF-CEM): 96.2%; growth at 10 µM (SNB-19): 107%; growth at 10 µM (HL-60(TB)): 108%; Activity [4]: 100%; IC50 [5]: > 10 µM; IC50 [6]: > 10 µM; growth at 10 µM (TK-10): 99%; growth at 10 µM (A549): 98.2%; growth at 10 µM (NCI-H23): 97.6%; growth at 10 µM (HCT-15): 97.3%; Activity (Aurora kinase B): 63%; growth at 10 µM (BT-549): 99.9%
2 | N#CCCCCCn1cc(C2=C(c3cn(CCCCCC#N)c4ccccc34)C(=O)N(O)C2=O)c2ccccc21 | 78 | 45 to 81.7 | 38 | 2 to 73.2 | 25 to 82.2 | 95 to 106 | 3 to 58 | 19 to 30.5 | 35 to 83.3 | 45 to 78.5 | 31 to 62.5 | 0.75 | 10 to 49.4 | 8 to 68.7 | > 10 | 91.6 | 25 to 80 | 21 to 63.3 | 2 to 39.4 | 26 to 65.5 | growth at 10 µM (UACC-62): 14 to 53.3%; growth at 10 µM (CCRF-CEM): 8 to 54.2%; growth at 10 µM (SNB-19): 27 to 79.5%; Activity [4]: 109%; IC50 [5]: > 10 µM; IC50 [6]: > 10 µM; growth at 10 µM (TK-10): 70 to 84.2%; growth at 10 µM (A549): 51 to 73.6%; growth at 10 µM (NCI-H23): 38 to 76.9%; growth at 10 µM (HCT-15): 21 to 70.8%; Activity (Aurora kinase B): 75%; growth at 10 µM (BT-549): 16 to 56%
3 | Cn1cc(C2=C(c3cn(CCCCCC#N)c4ccccc34)C(=O)N(O)C2=O)c2ccccc21 | 52 | 97.4 | 24 | 90 | 102 | 117 | 87.5 | 60.2 | 109 | 86.5 | 101 | 0.27 | 95.7 | 94.1 | 2.1 | 116 | 93.5 | 85.1 | 78.8 | 78.5 | growth at 10 µM (UACC-62): 82%; growth at 10 µM (CCRF-CEM): 83.3%; growth at 10 µM (SNB-19): 104%; growth at 10 µM (HL-60(TB)): 124%; Activity [4]: 105%; IC50 [5]: > 10 µM; IC50 [6]: > 10 µM; growth at 10 µM (TK-10): 116%; growth at 10 µM (A549): 95.8%; growth at 10 µM (NCI-H23): 88.1%; growth at 10 µM (HCT-15): 91.2%; Activity (Aurora kinase B): 71%; growth at 10 µM (BT-549): 81.4%
4 | O=C1C2=C(C(=O)N1O)c1cn(c3ccccc13)CCCCCCn1cc2c2ccccc21 | 68 | 109 | 107 | 119 | 106 | 98.2 | 97.5 | 79.3 | 108 | 106 | 98.6 | > 10 | 110 | 120 | > 10 | 113 | 97.2 | 115 | 99.6 | 104 | growth at 10 µM (UACC-62): 100%; growth at 10 µM (CCRF-CEM): 99.4%; growth at 10 µM (HL-60(TB)): 105%; Activity [4]: 108%; IC50 [5]: > 10 µM; IC50 [6]: > 10 µM; growth at 10 µM (TK-10): 105%; growth at 10 µM (A549): 108%; growth at 10 µM (NCI-H23): 99.7%; growth at 10 µM (HCT-15): 108%; Activity (Aurora kinase B): 97%; growth at 10 µM (BT-549): 97.6%
5 | Cn1cc(C2=C(c3cn(C)c4ccccc34)C(=O)N(O)C2=O)c2ccccc21 | 33 | 101 | 81 | 82.8 | 91.4 | 105 | 86.4 | 72.8 | 107 | 101 | 95.9 | 3 | 101 | 102 | 9 | 103 | 95.8 | 99.9 | 92.8 | 96.4 | growth at 10 µM (SNB-19): 102%; growth at 10 µM (HL-60(TB)): 87.1%; Activity [4]: 100%; IC50 [5]: > 10 µM; IC50 [6]: > 10 µM; growth at 10 µM (TK-10): 118%; growth at 10 µM (A549): 87.8%; growth at 10 µM (HCT-15): 99.9%; Activity (Aurora kinase B): 84%; growth at 10 µM (BT-549): 107%
